In PubChem BioAssay (NCI):
Several values for one entry are separate records, joined by “and”; a condition that tells them apart may be missing. Identical values can stand only once.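 Each compound was tested at five concentrations against cells in 96-well plates for 48 hours. GI50 = concentration required for 50% inhibition of growth. TGI: total growth inhibition.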

Columns and labels:
Experiment in all cases: DTP human tumour cell line panel, 48 h
HCC-2998 colon = tested on: HCC-2998 colon
HCT-116 colon = tested on: HCT-116 colon
HOP-62 NSCLC = tested on: HOP-62 NSCLC
K-562 leukemia = tested on: K-562 leukemia
MOLT-4 leukemia = tested on: MOLT-4 leukemia
NCI-H23 lung = tested on: NCI-H23 lung
NCI-H522 lung = tested on: NCI-H522 lung
NCI/ADR-RES ovarian = tested on: NCI/ADR-RES ovarian
SNB-75 CNS = tested on: SNB-75 CNS
SR leukemia = tested on: SR leukemia

Structure (SMILES)	GI50 (HCC-2998 colon)	TGI (HCC-2998 colon)	GI50 (HCT-116 colon)	TGI (HCT-116 colon)	GI50 (HOP-62 NSCLC)	TGI (HOP-62 NSCLC)	GI50 (K-562 leukemia)	TGI (K-562 leukemia)	GI50 (MOLT-4 leukemia)	TGI (MOLT-4 leukemia)	GI50 (NCI-H23 lung)	TGI (NCI-H23 lung)	GI50 (NCI-H522 lung)	TGI (NCI-H522 lung)	GI50 (NCI/ADR-RES ovarian)	TGI (NCI/ADR-RES ovarian)	GI50 (SNB-75 CNS)	TGI (SNB-75 CNS)	GI50 (SR leukemia)	TGI (SR leukemia)
C[C@H](c1ccc(F)cc1CCCC(=O)O)N(c1cc(F)ccc1F)S(=O)(=O)c1ccc(Cl)cc1	20.9 µM	59.4 µM	19.4 µM	47.1 µM	24.4 µM	> 70.2 µM	36.6 µM	> 100 µM	22.8 µM	> 83 µM	19.6 µM	59 µM	26 µM	> 93.3 µM	30.6 µM	> 100 µM	29.4 µM	> 91.3 µM	30.4 µM	98.1 µM
O=C(c1ccccc1)C(Cl)C(Cl)c1ccccc1 (centres undefined)	2 µM	3.56 µM	1.44 µM	2.95 µM	7.61 µM	21.7 µM	2.6 µM	10.3 µM	2.33 µM	6.25 µM	3.27 µM	12.8 µM	1.7 µM	3.42 µM	2.44 µM	7.35 µM	11.2 µM	23.3 µM	0.381 µM	7.65 µM
Cc1ccc(F)c(NC(=O)Nc2ccc(-c3cccc4[nH]nc(N)c34)cc2)c1	2.52 µM and 2.79 µM	6.67 µM and 7.81 µM	3.12 µM and 3.5 µM	11.4 µM and > 10 µM	4.07 µM and 3.12 µM	16.2 µM and > 10 µM	3.66 µM and 2.28 µM	> 57.5 µM and 9.29 µM	3.13 µM and 3.08 µM	> 42.9 µM	2.4 µM and 3.41 µM	6.17 µM and > 10 µM	1.87 µM and 2.19 µM	3.79 µM and 5.28 µM	3.4 µM and 3.81 µM	18.6 µM and > 10 µM	4.72 µM and 3.54 µM	15.3 µM and > 10 µM	2.62 µM and 1.87 µM	8.37 µM and 5.45 µM
Cc1ccccc1C1=C(c2cn(C)c3ccccc23)C(=O)NC1=O	> 25 µM	> 25 µM	7.77 µM	> 25 µM	> 24.1 µM	> 25 µM	13.6 µM	> 25 µM	10.8 µM	> 25 µM	> 25 µM	> 25 µM	> 22.6 µM	> 25 µM	24.3 µM	> 25 µM	0.644 µM	> 25 µM	7.78 µM	> 25 µM
CS(=O)(=O)CCNCc1ccc(-c2ccc3ncnc(Nc4ccc(OCc5cccc(F)c5)c(Cl)c4)c3c2)o1	> 10 µM and 4.1 µM and 8.86 µM	> 10 µM and 17.8 µM and 24.2 µM	> 10 µM and 7.19 µM and 10.3 µM	> 10 µM and > 100 µM and 23.6 µM	> 10 µM and > 62.2 µM and 13 µM	> 10 µM and > 100 µM and 43.9 µM	> 10 µM and 1.99 µM and 2.61 µM	> 10 µM and 4.67 µM and 18.3 µM	4.54 µM and 2.93 µM and 2.94 µM	> 10 µM and > 100 µM and 21.9 µM	> 10 µM and 7.82 µM and 10.4 µM	> 10 µM and > 100 µM and 31.1 µM	0.28 µM and 0.397 µM and 0.815 µM	> 10 µM and > 100 µM and 28.9 µM	5.52 µM and 2.9 µM and 4.32 µM	> 10 µM and > 100 µM and 50.3 µM	> 10 µM and 4.33 µM and 8.75 µM	> 10 µM and 35.5 µM and 44.2 µM	2.75 µM and 2.57 µM and 2.28 µM	> 10 µM and 5.8 µM and 11.3 µM
CS(=O)(=O)N1CCC(n2c(=O)c(Oc3ccc(F)cc3F)cc3cnc(NC4CCOCC4)nc32)CC1	> 25 µM	> 25 µM	> 25 µM	> 25 µM	> 25 µM	> 25 µM	> 25 µM	> 25 µM	> 25 µM	> 25 µM	> 25 µM	> 25 µM	> 25 µM	> 25 µM	> 25 µM	> 25 µM	> 25 µM	> 25 µM	> 25 µM	> 25 µM
O=C([O][Hg][c]1ccccc1)c1ccccc1	2 µM	3.82 µM	1.45 µM	2.99 µM	2.16 µM	4.84 µM	1.11 µM	4.74 µM	1.38 µM	5.7 µM	2.05 µM	4.84 µM	0.275 µM	0.754 µM	3.32 µM	> 27.4 µM	1.23 µM	3.63 µM	0.382 µM	2.35 µM
CCN1CCC(CC(=O)Nc2n[nH]c3nnc(-c4cccc(F)c4F)cc23)CC1	> 25 µM	> 25 µM	24.9 µM	> 25 µM	> 25 µM	> 25 µM	> 25 µM	> 25 µM	> 25 µM	> 25 µM	> 25 µM	> 25 µM	> 25 µM	> 25 µM	> 25 µM	> 25 µM		> 25 µM	> 25 µM	> 25 µM
CC(=O)OCC12CN(C#N)C3C4COC(CC41)C1(C(=O)N(C)c4ccccc41)C32 (centres undefined)		86.6 µM		40.7 µM		58.6 µM		> 100 µM		> 100 µM		44.6 µM		24.7 µM		95.8 µM		91.4 µM		68.3 µM
COC(=O)C12CCC(C)(C)CC1C1=CCC3C4(C)CC(O)C(O)C(C)(C(=O)OC)C4CCC3(C)C1(CO)CC2 (centres undefined)		27.2 µM		27.4 µM		32.2 µM		> 100 µM		34.4 µM		32.2 µM		35.2 µM		29.2 µM		25.3 µM		31.4 µM
O=[N+]([O-])c1ccc(/C=C/c2nc3ccc(Cl)cc3[nH]2)cc1	19.5 µM	88.1 µM	15.7 µM	37.6 µM	37.7 µM	> 100 µM	5.99 µM	> 100 µM	59.7 µM	> 100 µM	54.5 µM	> 100 µM	14.1 µM	> 100 µM	15 µM	> 100 µM	76.9 µM	> 100 µM	4.95 µM	> 100 µM
COc1ccc(-c2coc3cc(O)ccc3c2=O)cc1		> 100 µM		> 100 µM		> 100 µM		> 100 µM		> 100 µM		> 100 µM		> 100 µM		> 100 µM		> 100 µM		> 100 µM
COc1ccc(-c2cc(/C=C3\C(=O)Nc4cc(Cl)ccc43)[nH]n2)cc1	8.72 µM	68.7 µM	3.63 µM	> 100 µM	2.75 µM	85.9 µM	1.56 µM	32.3 µM	4.17 µM	> 100 µM	4.27 µM	> 100 µM	1.88 µM	6.77 µM	2.79 µM	17.5 µM	1.78 µM	6.96 µM	2.44 µM	14.1 µM
O=C(/C=C/C12c3ccccc3C(c3ccccc31)C1C(=O)N(c3ccc(Cl)cc3)C(=O)C12)c1ccccn1 (centres undefined)	0.244 µM	0.658 µM	0.183 µM	0.423 µM	0.405 µM	2.22 µM	0.267 µM	> 100 µM	0.322 µM	> 100 µM	0.342 µM	1.36 µM	0.26 µM	1.01 µM	0.332 µM	> 100 µM	0.256 µM	1.05 µM	0.241 µM	> 100 µM
CN(C)C1CCN(Cc2ccc(NC(=O)c3cncc(C#Cc4cnc(N)c5ncccc45)c3)cc2C(F)(F)F)CC1	9.21 µM	20.2 µM	8.28 µM	18 µM	9.34 µM	26.4 µM	0.0158 µM	1.02 µM	1.55 µM	5.57 µM	7.9 µM	19.9 µM	9.86 µM	26.5 µM	1.23 µM	2.7 µM	5.39 µM	11.5 µM	2.05 µM	50 µM
Oc1c(C(Nc2ccccn2)c2cccc(Oc3ccccc3)c2)ccc2cccnc12 (centres undefined)	1.84 µM	32.6 µM	0.449 µM	16.6 µM	0.448 µM	21 µM	0.374 µM	> 100 µM	0.436 µM	> 100 µM	0.839 µM	> 100 µM	0.492 µM	18.6 µM	0.416 µM	> 100 µM	0.433 µM	11.4 µM	0.508 µM	> 100 µM
Cc1ccc(-c2nc3nc(-c4ccc(F)cc4)nc(N4CCNCC4)c3o2)cc1	4.11 µM	15.8 µM	1.7 µM	3.32 µM	16.4 µM	37.9 µM	1.46 µM	5.44 µM	2.1 µM	4.42 µM	12 µM	27.6 µM	2.18 µM	6.19 µM	2.11 µM	4.47 µM	11.6 µM	23.9 µM	0.323 µM	1.13 µM
NC(=O)c1cccc2c(N[C@H](CN3CCC3)c3ccc(Cl)c(C(F)(F)F)c3)ncnc12	1.17 µM	2.88 µM	2.32 µM	11.7 µM	0.964 µM	14.5 µM	2.53 µM	10.8 µM	0.257 µM	3.46 µM	3.08 µM	17 µM	5.1 µM	20.3 µM	2.52 µM	14.4 µM	0.0506 µM	0.918 µM	1.35 µM	6.58 µM
